Results as given in US20170191038A1, “TGFß SIGNALING INDEPENDENT NAÏVE INDUCED PLURIPOTENT STEM CELLS, METHODS OF MAKING AND USE” (HONG GUAN Ltd., priority 2014, published 2017).
Counter-ions that a name gives are not always drawn.

What was measured:
Assay type in all cases: cell-based, rhesus monkey (Macaca mulatta)
[1] = tested on: Rhesus monkey primed iPSCs; assay: Conversion of rhesus monkey primed iPSCs to naive iPSCs (conversion condition optimization, TRA-1-81/TBX3 double-positive dome-shaped colonies); conditions: for effect on pluripotency / dome-shaped colony formation during naive conversion: primed iPSCs under 2i/LIF-based conditions, Y27632 10 μM, GÖ6983 5 μM
Experimental: Rhesus monkey primed iPSCs were dissociated into single cells by accutase and reseeded on feeder cells. The converting medium with 4 ng/ml bFGF (R&D Systems), 10 ng/ml human LIF (Millipore), CHIR99021 (3 μM; Stemgent) and PD0325901 (0.5 μM; Stemgent) was changed daily. At approximately day 7 to day 10, dome-shaped colonies were selected and transferred onto fresh feeder cells. Traditional 2i/LIF conditions—10 ng/ml human LIF (Millipore), CHIR99021 (3 μM; Stemgent) and PD0325901 (0.5 μM; Stemgent) were also tested and served as negative control. • (c) Conversion Condition Optimization for Rhesus Monkey Naïve iPSCs
Rhesus monkey primed iPSCs were dissociated into single cells by accutase and reseeded on feeder cells. The basal culture medium with 4 ng/ml bFGF (R&D Systems), 10 ng/ml human LIF (Millipore), CHIR99021 (3 μM; Stemgent) and PD0325901 (0.5 μM; Stemgent) was changed daily. The small molecules tested for culture condition optimization were SB203580 (10 μM; Tocris), SP600125 (10 μM; Tocris), Y27632 (10 μM; Tocris) and GÖ6983 (5 μM; Tocris). After treatment for 8 days, cells were fixed and immunostained for TRA-1-81.
(§1) To detect ALP activity the cells were washed with phosphate-buffered saline three times and stained with BCIP/NBT (Promega) for 15 min. For immunofluorescence, the primary antibodies included those against SSEA-1 (1:50, Chemicon), SSEA-4 (1:20, Santa Cruz Biotechnology), TRA-1-60 (1:50, Santa Cruz Biotechnology), TRA-1-81 (1:50, Santa Cruz Biotechnology), NANOG (1:100, R&D Systems), TBX3 (1:200, Abcam), H3K27me3 (1:200, Millipore), GATA4 (1:200, Santa Cruz Biotechnology), OCT4 (1:200, Abcam) and SOX2 (1:200, Santa Cruz Biotechnology). The secondary antibodies were rhodamine-labeled donkey anti-mouse IgG (1:100, Santa Cruz Biotechnology), rhodamine-labeled donkey anti-rabbit IgG (1:100, Santa Cruz Biotechnology), rhodamine-labeled goat anti-mouse IgM (1:100, Santa Cruz Biotechnology) and rhodamine-labeled donkey anti-goat IgG (1:100, Santa Cruz Biotechnology). DAPI (Roche Applied Science) was used for nuclear staining.

[2] = tested on: Rhesus monkey naïve iPSCs; assay: Signaling analysis of rhesus monkey naïve iPSCs (TRA-1-81-positive dome-shaped colonies); conditions: optimized conversion conditions; 5 days; Stattic 1 μM, SB431542 10 μM, SU5402 2 μM, TGF-β1 2 ng/ml
Experimental: (§2) Rhesus monkey primed iPSCs were maintained as described (Liu H et al., 2008). […] The tested signaling modulators were SU5402 (2 μM; Tocris), SB431542 (10 μM; Tocris), Stattic (1 μM; Tocris) and TGF-β1 (2 ng/ml, Peprotech). After treatment for 5 days, cells were fixed and immunostained for TRA-1-81.
as §1

[3] = tested on: Rhesus monkey primed iPSCs; assay: Signaling analysis of rhesus monkey primed iPSCs (TRA-1-81-positive colonies); conditions: hESCs medium; 5 days; Stattic 1 μM, SB431542 10 μM, SU5402 2 μM, TGF-β1 2 ng/ml
Experimental: as §2, §1

`COc1ccc2c(c1)c(C1=C(c3c[nH]c4ccccc34)C(=O)NC1=O)cn2CCCN(C)C` [GO{umlaut over ( )} 6983, 3-[1-[3-(Dimethylamino)propyl]-5-methoxy-1H-indol-3-yl]-4-(1H-indol-3-yl)-1H-pyrrole-2,5-dione] was tested, and the “effect on pluripotency / dome-shaped colony formation during naive conversion” value [1] was “induced pronounced differentiation and reduced TRA-1-81 expression in the colonies”.
In the case of `O=[N+]([O-])c1ccc2c(c1)S(=O)(=O)C=C2` [JAK/STAT3 inhibitor], the “self-renewal / pluripotency maintenance of naive iPSCs (TRA-1-81-positive dome-shaped colonies, words)” value [2] is reported as “readily differentiated with greatly reduced expression of TRA-1-81” and the “self-renewal / pluripotency maintenance of primed iPSCs (TRA-1-81-positive colonies, words)” value [3] is reported as “maintained their pluripotent properties”.
`O=C(NOC[C@H](O)CO)c1ccc(F)c(F)c1Nc1ccc(I)cc1F` [PD0325901, N-[(2R)-2,3-Dihydroxypropoxy]-3,4-difluoro-2-[(2-fluoro-4-iodophenyl)amino]-benzamide] was tested, and the “effect on pluripotency / dome-shaped colony formation during naive conversion” value [1] was “essential for conversion and maintenance of TBX3/TRA-1-81 double-positive dome-shaped colonies”.
For `NC(=O)c1ccc(-c2nc(-c3ccccn3)c(-c3ccc4c(c3)OCO4)[nH]2)cc1` [SB431542], the “self-renewal / pluripotency maintenance of naive iPSCs (TRA-1-81-positive dome-shaped colonies, words)” value [2] was “no effect on rhesus monkey naive iPSCs” and the “self-renewal / pluripotency maintenance of primed iPSCs (TRA-1-81-positive colonies, words)” value [3] was “devastating to primed iPSCs self-renewal”.
In the case of `Cc1c[nH]c(/C=C2\C(=O)Nc3ccccc32)c1CCC(=O)O` [SU5402], the “self-renewal / pluripotency maintenance of naive iPSCs (TRA-1-81-positive dome-shaped colonies, words)” value [2] is reported as “few TRA-1-81-positive colonies formed” and the “self-renewal / pluripotency maintenance of primed iPSCs (TRA-1-81-positive colonies, words)” value [3] is reported as “few TRA-1-81-positive colonies formed”.
In the case of `C[C@@H](N)[C@H]1CC[C@H](C(=O)Nc2ccncc2)CC1` [Y27632, (+)-(R)-trans-4-(1-aminoethyl)-N-(4-pyridyl)cyclohexanecarboxamide+++dihydrochloride], the “effect on pluripotency / dome-shaped colony formation during naive conversion” value [1] is reported as “induced pronounced differentiation and reduced TRA-1-81 expression in the colonies”.
In the case of “TGF-β: transforming growth factor-β1 (2 ng/ml, Peprotech)”, the “self-renewal / pluripotency maintenance of naive iPSCs (TRA-1-81-positive dome-shaped colonies, words)” value [2] is reported as “devastating to the self-renewal of naïve iPSCs”.
With “bFGF: recombinant basic fibroblast growth factor, protein factor” the “conversion efficiency (TRA-1-81/TBX3 double-positive and dome-shaped colonies of total colonies)” value ([1]; bFGF (4 ng/ml) added to 2i/LIF conditions, primed iPSCs) was 8%-10% and the “effect on pluripotency / dome-shaped colony formation during naive conversion” value [1] was “Dome-shaped colonies morphologically similar to mouse ESCs appeared”.
